Experimental data from USRE38102E1, “Use of a pyridazinone derivative” (Orion Corporation, priority 1998, dated 2003).
pEC50: −log10 of the molar value.

Columns and labels:
[1] = test system: guinea-pig papillary muscle; assay: Positive inotropic effect in paced cardiac muscle; type: cell-based; conditions: Cavia porcellus; right ventricular papillary muscle paced at 1 Hz, 37° C.
Experimental: Positive Inotropic Effect in Paced Cardiac Muscle
Four weeks old guinea-pigs weighing about 350 g were used. In the experiments the right ventricular papillary muscle of the heart was mounted for measurement of isometric tension in organ bath containing modified Tyrode solution (37° C.) bubbled with 95% O2, 5% CO2. The composition of the modified Tyrode solution was (mM): NaCl 135; MgCl2.6H2O 1; KCl 5; CaCl2.2H2O 2; NaHCO3 15; Na2HPO4.2H2O 1; glucose 10; pH 7.3-7.4. The volume of the open horizontal chamber was 1 ml and flow rate of the superfusion solution running through the chamber was 5 ml/min. Papillary muscle (<1 mm in diameter) was stretched horizontally between force-displacement transducer (FT 0.3 and a needle fixed to the bottom of the chamber. An initial stretching tension of 300 mg was applied to the muscle which was electrically stimulated (Stimulator model SEC 48 F, Grass Instruments) via platinum field electrodes at 1 Hz with rectangular pulses (duration 4 ms). The stimulation occurred at twice threshold voltage in order to achieve simultaneous activation of all myocytes in the […]. A force-displacement transducer was connected to a polygraph D.C. driver amplifier (model 7 DA, Grass Instruments) and a programmable scanner (model SI 5010, Tetronix). […]

[2] = test system: skinned cardiac fiber (left ventricular papillary muscle); assay: Calcium sensitizing effect in skinned cardiac fiber; type: cell-based, guinea-pig; conditions: pCa 5.6; concentration not given
Text: Calcium Sensitizing Effect in Skinned Cardiac Fiber
Left ventricular papillary muscle of the guinea-pig was dissected and rinsed in ice-cold Tyrode solution. Thereafter the papillary muscle was immersed into a solution containing (mM): Potassium acetate 74.7, EGTA 10, MgSO4 5.4, ATP-Na2 4, DTE 1, MOPS 20, pH 7.0 (by 1 M KOH). Subsequently, the papillary muscle was sonicated at 10 Watt for 60 sec in this ice-cold solution. The distance between ultrasound probe and the papillary muscle was 10 mm. The fibers (<200 μm in diameter) were dissected from surface of sonicated papillary muscles. Moreover, the sonicated and dissected fibers were kept for 30 min in a “skinning” solution (ice-cold) containing saponin (250 μg/ml) in addition to the other constituents. Continuous magnetic stirring was used during this treatment.
The fibers which were further dissected (<100 μm in diameter) were then mounted horizontally with a glue (cellulose acetate in acetone) between a steel-rod extension of isometric force transducer (AME-801 strain gauge, Horten Electronics, Norway) and a glass rod attached to a micro-manipulator. The force transducer was connected to an amplifier. The fibers were kept in the “relaxing” solution containing (mM): imidazole 30, ATP-Na2 10, NaN3 5, EGTA 5, MgCl2 12.5, and 350 U creatinkinase. The temperature of the solution was 22° C. and the pH was set to 6.7 by 1 M KOH. […]

pEC50 [1] | SMILES | Calcium sensitizing effect in skinned fiber: Change in force % of control [2]
7.00 | CC(=O)Nc1ccc(C2=NNC(=O)C[C@H]2C)cc1 [Compound A, (R)-N-[4-(1,4,5,6-tetrahydro-4-methyl-6-oxo-3-pyridazinyl)phenyl]acetamide] | 
5.70 | Cc1[nH]c(=O)c(C#N)cc1-c1ccncc1 [Milrinone, milrinone] | ineffective
